Assay [1] addresses T1, serotoninergic receptor 5-HT2C (Homo sapiens, UniProt P28335).
T1 construct: expressed in transfected cells; host or cells: HEK-293 cells
T1 sequence (P28335 33-458): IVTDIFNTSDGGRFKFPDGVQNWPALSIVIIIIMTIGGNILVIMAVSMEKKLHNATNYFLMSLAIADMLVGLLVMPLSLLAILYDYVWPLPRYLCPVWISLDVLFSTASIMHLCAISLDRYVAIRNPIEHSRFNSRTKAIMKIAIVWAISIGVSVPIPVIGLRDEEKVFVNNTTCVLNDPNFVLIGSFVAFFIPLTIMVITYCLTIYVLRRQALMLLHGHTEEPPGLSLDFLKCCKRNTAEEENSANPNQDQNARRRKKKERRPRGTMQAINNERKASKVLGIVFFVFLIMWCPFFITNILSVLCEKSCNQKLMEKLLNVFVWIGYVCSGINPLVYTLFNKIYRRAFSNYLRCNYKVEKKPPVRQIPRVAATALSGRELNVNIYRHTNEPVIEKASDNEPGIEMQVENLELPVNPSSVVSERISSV
Description: Binding assay 5-HT2C (h), [3H]mesulergine, HEK-293 cells. As to conditions: read-out: 5-HT2C [%]. The procedure:
(§1) The specific ligand binding to the receptors is defined as the difference between the total binding and the nonspecific binding determined in the presence of an excess of so unlabelled ligand.
(§2) The specific Ligand binding to the receptor is defined as the difference between total and non-specific binding determined in the presence of an excess of unlabelled ligand. The compounds were tested at a concentration of 1×10^−6 M, and scintillation counting was the method of detection of ligand binding.

Assay [2] concerns the target T2, serotoninergic 5-HT1A receptor (Homo sapiens, UniProt P08908).
T2 sequence (P08908 1-422): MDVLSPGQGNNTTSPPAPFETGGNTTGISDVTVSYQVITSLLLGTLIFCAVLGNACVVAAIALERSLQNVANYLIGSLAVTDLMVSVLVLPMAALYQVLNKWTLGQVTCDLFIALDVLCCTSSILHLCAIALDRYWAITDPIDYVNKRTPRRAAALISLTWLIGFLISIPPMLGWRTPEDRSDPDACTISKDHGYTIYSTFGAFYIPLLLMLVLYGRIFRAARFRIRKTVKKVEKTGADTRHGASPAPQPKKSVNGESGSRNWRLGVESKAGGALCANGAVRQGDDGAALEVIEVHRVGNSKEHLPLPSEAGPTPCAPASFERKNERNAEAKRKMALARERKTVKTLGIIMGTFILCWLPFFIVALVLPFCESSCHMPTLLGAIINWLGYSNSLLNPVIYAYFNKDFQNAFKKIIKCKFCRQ
Description: Binding assay 5-HT1A (h), [3H]8-OH-DPAT, HEK-293 cells. Also on record: expressed in transfected cells; host or cells: HEK-293 cells. As to conditions: read-out: 5-HT1A. The method, boiled down: (§3)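 Test conc. 1×10^−6 M. Read-out by scintillation counting. Specific = total − nonspecific (excess cold ligand).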

Assay [3] addresses T3, adrenergic α2C receptor (Homo sapiens, UniProt P18825).
T3 sequence (P18825 1-462): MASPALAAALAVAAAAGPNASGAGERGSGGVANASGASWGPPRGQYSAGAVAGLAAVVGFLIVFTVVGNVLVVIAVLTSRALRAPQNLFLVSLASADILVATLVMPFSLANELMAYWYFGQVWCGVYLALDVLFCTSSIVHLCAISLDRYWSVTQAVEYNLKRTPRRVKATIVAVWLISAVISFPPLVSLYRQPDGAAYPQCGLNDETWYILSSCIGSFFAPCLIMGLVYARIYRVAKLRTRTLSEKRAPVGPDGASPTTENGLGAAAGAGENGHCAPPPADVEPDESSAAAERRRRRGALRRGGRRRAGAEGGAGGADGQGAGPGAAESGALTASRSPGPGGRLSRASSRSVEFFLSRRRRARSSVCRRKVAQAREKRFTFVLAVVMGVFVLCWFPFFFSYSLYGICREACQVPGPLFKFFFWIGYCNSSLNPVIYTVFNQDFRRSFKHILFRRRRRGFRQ
The assay can be described thus: Binding assay α2C (h), [3H]RX 821002, CHO cells. Also on record: expressed in transfected cells; host or cells: CHO cells. As to conditions: read-out: α2C [%]. The protocol: as §1, §2

Assay [4] has as its target dopaminergic D3 receptor (Homo sapiens, UniProt P35462). Description: Binding assay D3 (h), [3H]methyl-spiperone, CHO cells. The arrangement: expressed in transfected cells; host or cells: CHO cells. As to conditions: read-out: D3 [%]. An outline of the steps: as §3
Assay [5] deals with T4, muscarinic M3 receptor (Homo sapiens, UniProt P20309).
T4 construct: expressed in transfected cells; host or cells: CHO cells
T4 sequence (P20309 whole entry): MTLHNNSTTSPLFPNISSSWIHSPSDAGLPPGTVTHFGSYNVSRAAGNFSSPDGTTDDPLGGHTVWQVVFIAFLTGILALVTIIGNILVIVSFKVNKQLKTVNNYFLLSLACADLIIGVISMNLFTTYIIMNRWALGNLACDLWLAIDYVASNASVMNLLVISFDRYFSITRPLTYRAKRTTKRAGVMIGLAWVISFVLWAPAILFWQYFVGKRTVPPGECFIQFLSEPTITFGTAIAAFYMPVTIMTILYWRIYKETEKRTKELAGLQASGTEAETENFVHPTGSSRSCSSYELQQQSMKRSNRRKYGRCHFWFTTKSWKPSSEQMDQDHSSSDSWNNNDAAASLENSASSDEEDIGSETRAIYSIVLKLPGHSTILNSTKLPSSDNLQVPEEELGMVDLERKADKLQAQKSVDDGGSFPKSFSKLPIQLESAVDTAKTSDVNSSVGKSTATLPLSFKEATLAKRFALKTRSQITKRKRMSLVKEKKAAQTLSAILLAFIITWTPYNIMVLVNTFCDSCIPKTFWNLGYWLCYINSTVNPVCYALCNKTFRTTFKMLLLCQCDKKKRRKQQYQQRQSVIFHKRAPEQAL
The assay can be described thus: Binding assay M3 (h), [3H]4-DAMP, CHO cells. The note with it: read-out: M3 [%]. The procedure: as §1, §2

In assay [6] the test system is adrenergic α1 receptor. Description: Binding assay α1 (non-selective), [3H]prazosin, rat cerebral cortex. The note with it: percent inhibition of control specific binding; compounds tested at 1×10^−6 M. An outline of the steps: as §3
Assay [7] relates to sigma σ receptor. Description: Binding assay σ (non-selective), [3H]DTG, rat cerebral cortex. As to conditions: percent inhibition of control specific binding; compounds tested at 1×10^−6 M. The protocol:
as §1, §2

The target in assay [8] is serotoninergic 5-HT2A receptor (Homo sapiens, UniProt P28223). Description: Binding assay 5-HT2A (h), [3H]ketanserin, HEK-293 cells. The arrangement: expressed in transfected cells; host or cells: HEK-293 cells. As to conditions: read-out: 5-HT2A. The method, boiled down:
as §3

Assay [9] addresses serotoninergic 5-HT7 receptor (Homo sapiens, UniProt P34969). The assay can be described thus: Binding assay 5-HT7 (h), [3H]LSD, CHO cells. Also on record: expressed in transfected cells; host or cells: CHO cells. The note with it: read-out: 5-HT7. The method, boiled down: as §3
The target in assay [10] is T5, serotonine transporter (SERT) receptor (Homo sapiens, UniProt P31645).
T5 construct: expressed in transfected cells; host or cells: CHO cells
T5 sequence (P31645 whole entry): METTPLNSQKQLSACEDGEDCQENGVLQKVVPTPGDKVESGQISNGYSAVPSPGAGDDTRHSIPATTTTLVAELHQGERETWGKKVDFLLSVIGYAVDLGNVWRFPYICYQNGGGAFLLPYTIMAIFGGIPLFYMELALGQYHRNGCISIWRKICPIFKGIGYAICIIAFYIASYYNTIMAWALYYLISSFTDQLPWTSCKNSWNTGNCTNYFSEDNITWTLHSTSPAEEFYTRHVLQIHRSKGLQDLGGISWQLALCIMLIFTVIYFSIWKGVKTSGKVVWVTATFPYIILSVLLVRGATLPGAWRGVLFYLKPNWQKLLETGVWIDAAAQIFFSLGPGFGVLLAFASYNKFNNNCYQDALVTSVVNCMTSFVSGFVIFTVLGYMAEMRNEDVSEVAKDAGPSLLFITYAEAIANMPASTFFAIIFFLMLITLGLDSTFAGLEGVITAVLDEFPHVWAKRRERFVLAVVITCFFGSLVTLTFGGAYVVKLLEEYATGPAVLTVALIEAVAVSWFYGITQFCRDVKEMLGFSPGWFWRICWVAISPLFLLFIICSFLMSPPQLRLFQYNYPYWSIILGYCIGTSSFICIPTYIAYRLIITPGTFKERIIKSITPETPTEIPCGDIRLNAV
The assay can be described thus: Binding assay SERT (h), [3H]imipramine, CHO cells. The note with it: read-out: SERT [%]. An outline of the steps:
as §3

The target of assay [11] is serotoninergic 5-HT6 receptor (Homo sapiens, UniProt P50406). The assay can be described thus: Binding assay 5-HT6 (h), [3H]LSD, CHO cells. Also on record: expressed in transfected cells; host or cells: CHO cells. As to conditions: read-out: 5-HT6. The method, boiled down:
as §3

Assay [12] addresses histaminergic H1 receptor (Homo sapiens, UniProt P35367). Description: Binding assay H1 (h), [3H]pyrilamine, HEK-293 cells. Also on record: expressed in transfected cells; host or cells: HEK-293 cells. As to conditions: read-out: H1 [%]. The protocol: as §1, §2
In assay [13] the target is dopaminergic D2 receptor (Homo sapiens, UniProt P14416). Description: Binding assay D2S (h), [3H]methyl-spiperone, HEK-293 cells. The note with it: read-out: D2 [%]. The arrangement: expressed in transfected cells; host or cells: HEK-293 cells. The method, boiled down: as §3
dopaminergic D2 receptor, sequence (P14416 1-414 isoform P14416-2): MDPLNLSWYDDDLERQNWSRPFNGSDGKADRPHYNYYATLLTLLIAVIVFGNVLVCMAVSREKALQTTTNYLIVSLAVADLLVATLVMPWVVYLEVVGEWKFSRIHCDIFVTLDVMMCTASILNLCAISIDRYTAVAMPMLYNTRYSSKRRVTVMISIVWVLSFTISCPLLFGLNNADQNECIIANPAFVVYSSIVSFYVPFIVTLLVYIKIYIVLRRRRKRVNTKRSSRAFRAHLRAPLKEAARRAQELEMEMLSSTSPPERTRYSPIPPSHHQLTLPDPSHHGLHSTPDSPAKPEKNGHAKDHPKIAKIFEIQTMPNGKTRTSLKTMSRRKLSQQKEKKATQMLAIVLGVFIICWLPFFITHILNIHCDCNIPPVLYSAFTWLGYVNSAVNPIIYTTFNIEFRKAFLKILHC

The values that follow come from US8822517B2, “Arylosulfonamides for the treatment of CNS diseases” (Adamed SP. Z O.O., priority 2010, dated 2014).

serotoninergic 5-HT2A receptor, sequence (P28223 whole entry): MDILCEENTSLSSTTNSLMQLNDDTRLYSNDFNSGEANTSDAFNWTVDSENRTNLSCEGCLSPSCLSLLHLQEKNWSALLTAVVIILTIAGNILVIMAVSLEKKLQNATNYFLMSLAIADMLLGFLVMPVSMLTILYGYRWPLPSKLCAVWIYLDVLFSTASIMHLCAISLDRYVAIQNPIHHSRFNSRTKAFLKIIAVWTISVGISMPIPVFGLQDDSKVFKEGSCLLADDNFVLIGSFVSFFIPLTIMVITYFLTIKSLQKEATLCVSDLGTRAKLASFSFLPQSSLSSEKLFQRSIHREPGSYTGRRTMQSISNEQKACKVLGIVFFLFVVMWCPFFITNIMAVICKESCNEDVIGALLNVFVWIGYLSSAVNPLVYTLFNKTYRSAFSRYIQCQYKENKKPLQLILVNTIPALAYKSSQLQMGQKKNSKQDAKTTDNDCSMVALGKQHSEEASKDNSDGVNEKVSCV
serotoninergic 5-HT7 receptor, sequence (P34969 whole entry): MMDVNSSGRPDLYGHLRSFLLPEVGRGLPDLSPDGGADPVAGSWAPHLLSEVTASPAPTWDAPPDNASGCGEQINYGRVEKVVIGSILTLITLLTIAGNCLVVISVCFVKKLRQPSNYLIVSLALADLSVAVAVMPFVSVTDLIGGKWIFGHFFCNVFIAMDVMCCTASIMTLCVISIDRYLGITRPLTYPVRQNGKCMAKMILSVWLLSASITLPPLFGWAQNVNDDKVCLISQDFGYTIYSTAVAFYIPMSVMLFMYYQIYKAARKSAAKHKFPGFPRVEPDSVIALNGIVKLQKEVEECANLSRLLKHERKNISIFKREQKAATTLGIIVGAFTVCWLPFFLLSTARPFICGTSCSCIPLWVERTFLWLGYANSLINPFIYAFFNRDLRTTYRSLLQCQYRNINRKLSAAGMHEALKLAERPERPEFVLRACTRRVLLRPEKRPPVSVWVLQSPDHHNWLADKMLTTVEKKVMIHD
histaminergic H1 receptor, sequence (P35367 whole entry): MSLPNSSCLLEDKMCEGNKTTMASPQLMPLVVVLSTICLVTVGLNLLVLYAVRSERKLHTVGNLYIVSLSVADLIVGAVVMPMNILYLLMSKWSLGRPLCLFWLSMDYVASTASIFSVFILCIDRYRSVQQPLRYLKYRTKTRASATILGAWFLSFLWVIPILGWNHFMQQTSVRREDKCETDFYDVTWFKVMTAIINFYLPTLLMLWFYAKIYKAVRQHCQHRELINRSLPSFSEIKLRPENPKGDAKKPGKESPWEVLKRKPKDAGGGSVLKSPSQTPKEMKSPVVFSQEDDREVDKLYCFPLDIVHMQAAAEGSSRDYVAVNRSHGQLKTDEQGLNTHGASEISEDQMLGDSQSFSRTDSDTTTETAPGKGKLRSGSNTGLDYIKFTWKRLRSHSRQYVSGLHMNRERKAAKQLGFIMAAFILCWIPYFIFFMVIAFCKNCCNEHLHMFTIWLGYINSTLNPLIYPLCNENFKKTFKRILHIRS
dopaminergic D3 receptor, sequence (P35462 whole entry): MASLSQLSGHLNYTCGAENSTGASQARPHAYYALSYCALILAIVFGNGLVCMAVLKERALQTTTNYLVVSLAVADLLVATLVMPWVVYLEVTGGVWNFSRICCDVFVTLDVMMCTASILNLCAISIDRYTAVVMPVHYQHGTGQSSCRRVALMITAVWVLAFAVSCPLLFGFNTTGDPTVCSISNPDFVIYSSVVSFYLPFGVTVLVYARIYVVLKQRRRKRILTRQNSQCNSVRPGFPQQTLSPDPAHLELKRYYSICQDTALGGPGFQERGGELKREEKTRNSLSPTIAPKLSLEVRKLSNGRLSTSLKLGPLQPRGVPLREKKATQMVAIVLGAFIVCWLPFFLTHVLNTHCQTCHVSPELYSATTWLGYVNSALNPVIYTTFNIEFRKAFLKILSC
serotoninergic 5-HT6 receptor, sequence (P50406 whole entry): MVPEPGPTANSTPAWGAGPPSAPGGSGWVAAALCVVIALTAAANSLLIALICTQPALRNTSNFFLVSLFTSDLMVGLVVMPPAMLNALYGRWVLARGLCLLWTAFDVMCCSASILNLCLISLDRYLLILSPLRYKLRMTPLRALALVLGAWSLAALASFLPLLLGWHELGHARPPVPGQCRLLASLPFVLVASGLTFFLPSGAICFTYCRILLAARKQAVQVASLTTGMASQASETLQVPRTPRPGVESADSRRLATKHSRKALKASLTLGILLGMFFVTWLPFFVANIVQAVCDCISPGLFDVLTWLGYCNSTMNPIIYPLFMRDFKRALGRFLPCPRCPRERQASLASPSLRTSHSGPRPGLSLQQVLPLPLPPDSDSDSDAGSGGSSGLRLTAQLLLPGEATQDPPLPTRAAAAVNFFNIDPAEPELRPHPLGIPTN

As to `CC(C)(C)c1ccc(S(=O)(=O)NCCCCN2CCC(c3noc4cc(F)ccc34)CC2)cc1` [Compound 301, 4-tert-Butyl-N-[4-[4-(6-fluoro-1,2-benzoxazol-3-yl)piperidin-1-yl]butyl]benzenesulphonamide], the inhibition at 1 µM in assay [1] was determined as 79%; in assay [2], 77%; in assay [3] it was 98%; in assay [4], 96%; in assay [5] it was 18%; in [8], 101%. The inhibition at 1 µM turned out to be 98% in assay [9]; 45% in [10]; 94% in [11]; 88% in assay [12]; 96% in [13]. In assay [6], the “α1 [%]” value is given as 96%. For the same compound, the “σ [%]” value in assay [7] is on record as 73%.
On to `O=S(=O)(NCCCN1CCN(c2nsc3ccccc23)CC1)c1ccc(C(F)(F)F)cc1` [Compound 257, N-[3-[4-(1,2-Benzothiazol-3-yl)piperazin-1-yl]propyl]-4-(trifluoromethyl)benzenesulphonamide], for which the inhibition at 1 µM in [1] is 83%; in [2], 99%; in assay [3], 99%; in [4], 100%; in assay [5], 12%; in assay [8] it was 101%. Also, the inhibition at 1 µM came out at 101% in [9]; 93% in [10]; 94% in [11]; 91% in [12]; 99% in assay [13]. The “α1 [%]” value in assay [6] is reported as 94%. In addition, in assay [7], the “σ [%]” value is 57%.
Take `O=S(=O)(NCCCCN1CCN(c2nsc3ccccc23)CC1)c1ccc2c(c1)OCO2` [Compound 245, N-[4-[4-(1,2-Benzothiazol-3-yl)piperazin-1-yl]butyl]-1,3-benzodioxole-5-sulphonamide]: the inhibition at 1 µM amounted to 72% in assay [1]; 99% in assay [2]; 101% in assay [3]; 97% in assay [4]; 25% in assay [5]; 99% in [8]. The inhibition at 1 µM in [9] is 98%; in assay [10] it was 38%; in [11] it was 82%; in assay [12], 98%; in assay [13] it was 97%. Also, in assay [6], the “α1 [%]” value worked out at 96%. Besides, in assay [7], the “σ [%]” value is on record as 52%.
With `O=S(=O)(NCCCN1CCN(c2nsc3ccccc23)CC1)c1ccc(F)cc1` [Compound 248, N-[3-[4-(1,2-Benzothiazol-3-yl)piperazin-1-yl]propyl]-4-fluorobenzenesulphonamide], the inhibition at 1 µM turned out to be 84% in [1]; 97% in [2]; 93% in assay [3]; 100% in assay [4]; 13% in [5]; 101% in [8]. Also, the inhibition at 1 µM was determined as 98% in assay [9]; 80% in assay [10]; 98% in [11]; 97% in [12]; 99% in [13]. Also, the “α1 [%]” value in [6] came to 91%. For the same compound, the “σ [%]” value in [7] turned out to be 64%.
For the compound `O=S(=O)(NCCCN1CCN(c2nsc3ccccc23)CC1)c1ccc(Cl)s1` [Compound 196, N-[3-[4-(1,2-Benzothiazol-3-yl)piperazin-1-yl]propyl]-5-chloro-thiophene-2-sulphonamide], the inhibition at 1 µM in assay [1] stood at 89%; in assay [2] it was 99%; in [3] it was 95%; in [4] it was 97%; in assay [5], 18%; in [8], 102%. The inhibition at 1 µM in assay [9] was found to be 100%; in assay [10] it was 75%; in assay [11], 92%; in [12], 93%; in assay [13], 98%. Also, in assay [6], the “α1 [%]” value is 93%. The “σ [%]” value in assay [7] worked out at 66%.
Turning to `O=S(=O)(NCCCCN1CCC(c2noc3cc(F)ccc23)CC1)c1ccc2c(c1)OCCO2` [Compound 321, N-[4-[4-(6-Fluoro-1,2-benzoxazol-3-yl)piperidin-1-yl]butyl]-2,3-dihydro-1,4-benzodioxine-6-sulphonamide], the inhibition at 1 µM in [1] is 65%; in assay [2], 78%; in assay [3] it was 100%; in [4] it was 98%; in assay [5], 14%; in [8], 100%. Also, the inhibition at 1 µM in assay [9] amounted to 100%; in assay [10], 61%; in [11] it was 89%; in assay [12] it was 95%; in assay [13], 98%. The “α1 [%]” value in assay [6] is 98%. Further, the “σ [%]” value in [7] is reported as 74%.
As for `O=S(=O)(NCCCN1CCC(c2noc3cc(F)ccc23)CC1)c1cnc2ccccn12` [Compound 356, N-[3-[4-(6-Fluoro-1,2-benzoxazol-3-yl)piperidin-1-yl]propyl]imidazo[1,2-a]pyridine-3-sulphonamide], the inhibition at 1 µM in assay [1] was determined as 83%; in [2], 95%; in [3], 96%; in [4] it was 96%; in [5], 2%; in [8] it was 99%. Further, the inhibition at 1 µM in [9] was determined as 99%; in [10], 11%; in [11], 78%; in assay [12], 80%; in [13] it was 98%. The “α1 [%]” value in assay [6] worked out at 101%. The “σ [%]” value in assay [7] is recorded as 70%.
